The source of these data is patent US12096770B2, “Method for preparing an insect repellent agent” (CENTRE NATIONAL DE LA RECHERCHE SCIENTIFIQUE, priority 2019, dated 2024).

In brackets after ≈: the same amount, converted by molar mass. Several values for one entry are separate records, joined by “and”; a condition that tells them apart may be missing. Identical values can stand only once.

One assay deals with Aedes albopictus. The experiment in a line: Behavioural (blood-feeding) repellency test on tiger mosquitoes with feeders covered by pig intestinal skin. Particulars: for % Repellency: 1 hour, relative to EtOH negative control, mean ± standard deviation of 16 replicates; for effect of added compound on repellent activity of PMD: added to commercial cis/trans PMD 75/25 at 200 mg/m^2 in EtOH. In kind it is in vivo. On the procedure: Testing was performed as to the activity of the compositions obtained by the method according to the invention on the behaviour of the tiger mosquito, Aedes albopictus.
The behavioural tests were carried out at the Montpellier Vectopôle, which is a research centre that collaborates with the WHO for the evaluation of insecticides in public health.
The tests were carried out on mosquitoes aged 5 to 9 days old after their evolution from pupae to adult.
In preparation for the experiment, the mosquitoes were […] on the day prior thereto, in order to promote their appetite for the test to occur the subsequent day.
Each cup contains a damp cotton. The female mosquitoes were removed from the cage making use of a tube that enables aspiration thereof. They were then introduced into each experiment cup (10 mosquitoes per cup).
The tests were carried out on plexiglass racks serving as supports for glass bells known as feeders. The latter are connected to each other by plastic pipes wherein water circulates at 37° C.
Pig intestinal skin was used to mimic human skin in the experiment. The pieces of intestinal skin are positioned and stretched over the feeders.
The repellent is diluted in ethyl alcohol (aka ethanol or EtOH) and is deposited on the skin using a micropipette and then spread over the entire surface. […] If the composition tested is a mixture of at least two compounds, one of which is PMD, the said composition is diluted in ethanol until 0.02036 mg/μL of PMD is obtained.
The feeders are turned over, then 300 μL of sheep blood are placed in each feeder. The cups are inserted under each feeder.
Polystyrene plates are inserted between the lines of repellent so as to avoid possible interactions of odours. The duration of the experiment is one hour. The cups are then placed in a freezer at −20° C. for a period of 40 minutes. After freezing, the contents of one cup are placed between two sheets of paper, with the entirety thereof then being crushed with a plexiglass plate. The counting of the blood-fed (engorged) mosquitoes is done based on the number of red dots on the sheet of paper. The results are expressed as a percentage of repellency (100% −X% of blood-feeding). The percentage of blood-feeding is defined in relation to the EtOH negative control. DEET and commercial cis/trans PMD 75/25 at 200 mg/m^2 were used as positive controls.
The results obtained were statistically analysed using R software (R Development Core Team. R: A language and environment for statistical computing. R Foundation for Statistical Computing, Vienna, Austria. ISBN 3-900051-07-0, 2013) and represent the mean of 16 replicates. The percentage repellency values are presented as a mean±standard deviation. The R software also makes it possible to compare two percentage repellency values by means of calculating the quantity p. This quantity p is a probability.

For the next assay, the system named is acetylcholinesterase. Particulars: cited from earlier work.
Assay [1] concerns olfactory receptors of Aedes albopictus. The experiment in a line: Orientation tests in ElectroAntennogGraphy coupled with Gas Chromatography.
Description: Orientation tests in ElectroAntennogGraphy coupled with Gas Chromatography were carried out.

In the case of `CC1CCC(C(C)(C)O)C(O)C1` (mixture of isomers) [Commercial cis/trans PMD 75/25 derived from R citronellal] [p-menthane-3,8-diol], the “% Repellency” value in the assay on Aedes albopictus (200 mg/m^2 (of PMD) in EtOH) is 24 ± 2%. In the case of `CCN(CC)C(=O)c1cccc(C)c1` [DEET, N,N diethyl-meta-toluamide], the “% Repellency” value with Aedes albopictus (110 mg/m^2 in EtOH) was 63 ± 5% and 49 ± 4% and 68 ± 10% and 43 ± 1% and 41 ± 6% and 63 ± 8% and 73 ± 7% and 28 ± 8%. For the same compound, the acetylcholinesterase inhibition result with acetylcholinesterase was “inhibits”. As for `CC1CCC(C(C)(C)O)C(O)C1` (mixture of isomers) [Commercial cis/trans PMD 75/25 derived from S citronellal] [p-menthane-3,8-diol], the “% Repellency” value in the assay with Aedes albopictus (200 mg/m^2 (of PMD) in EtOH) stood at 41 ± 3%. On the same count and under the same terms, to `CC1CCC(C(C)(C)O)C(O)C1` (mixture of isomers) [Commercial cis/trans PMD 60/40, p-menthane-3,8-diol] belongs 68 ± 15%; to `CC1CCC(C(C)(C)O)C(O)C1` (stereo not drawn) [Commercial cis PMD, p-menthane-3,8-diol], 64 ± 15%. Consider `C=C(C)C1CCC(C)CC1O` (stereo not drawn) [isopulegol, 5-methyl-2-prop-1-en-2-ylcyclohexan-1-ol], for which the “effect of added compound on repellent activity of PMD” value (shortened to “effect of added compound”) in the assay with Aedes albopictus is “may enhance the repellent activity of PMD”. For the compound `CC(C)=CCCC(C)CCO` (stereo not drawn) [citronellol, 3,7-dimethyloct-6-en-1-ol], the “recognition in ElectroAntennogGraphy” value in assay [1] is “recognised at very low doses”.

As to `CC(C)=CCCC(C)CC=O` (stereo not drawn) [citronellal, 3,7-dimethyloct-6-en-1-al], the “effect of added compound” value with Aedes albopictus is recorded as “does not boost PMD activity”. Turning to `C=C1CC/C=C(\C)CC[C@@H]2[C@@H]1CC2(C)C` [caryophyllene, (1R,4E,9S)-4,11,11-trimethyl-8-methylidenebicyclo[7.2.0]undec-4-ene], the “effect of added compound” value in the assay on Aedes albopictus is listed as “enhances the repellent activity of PMD”. Moreover, in assay [1], the “recognition in ElectroAntennogGraphy” value was “recognised at very low doses”. For the compound `CC1CCC(C(C)(C)O)C(O)C1` (racemic) [Commercial cis/trans PMD 75/25, p-menthane-3,8-diol], the “% Repellency” value in the assay on Aedes albopictus (200 mg/m^2 (of PMD) in EtOH) is 79 ± 4% and 59 ± 14% and 68 ± 2% and 55 ± 10% and 60 ± 5% and 65 ± 8% and 69 ± 13% and 63 ± 9% and 59 ± 9% and 56 ± 13%; in the assay on Aedes albopictus (200 mg/m^2 (of PMD) in EtOH, listed as Commercial cis/trans PMD 75/25 derived from RS citronellal (racemic mixture)), 34 ± 1%. Further, the “ED 50 expressed as concentration” value in the assay on Aedes albopictus (concentration in EtOH tantamount to 200 mg/m^2) was determined as 0.02036 mg/µL (≈ 118 mM). Besides, in the assay on Aedes albopictus (dose deposited on skin), the “ED 50 (median effective dose)” value turned out to be 200 mg/m^2. As to `CC1CCC(C(C)(C)O)C(O)C1` (stereo not drawn) [PMD, (2-hydroxypropan-2-yl)-5-methylcyclohexan-1-ol], in assay [1], the “recognition in ElectroAntennogGraphy” value was “recognised at very low doses”.

`CC(C)=CCCC(C)CC1OC2CC(C)CCC2C(C)(C)O1` (stereo not drawn) [acetals]: the “effect of added compound” value in the assay with Aedes albopictus is reported as “enhance the repellent activity of PMD”. Turning to `CC1CCC(C(C)(C)O)C(O)C1` (stereo not drawn) [Commercial trans PMD, p-menthane-3,8-diol], the “% Repellency” value in the assay on Aedes albopictus (200 mg/m^2 (of PMD) in EtOH) came out at 57 ± 6%.
